# Source: patent publication US10934309B2, “Tricyclic quinone derivative” (Boston Biomedical, Inc., priority 2014, dated 2021)
# Columns and labels:
# Type in all cases: cell-based, human
# [1] = test system: FaDu cells; assay: Proliferation inhibition assay of cancer cells (Test Example 1), FaDu; settings: Homo sapiens, FaDu, 96 h, FaDu cells, cultured for 4 days, Cell Titer-Glo; read-out: IC50 (μM) FaDu; concentration for 50% inhibition of cell proliferation (Bulk IC50 value)
# Protocol: (§1) HCT-116 cells (derived from human colon adenocarcinoma), HT-29 cells (derived from human colon cancer), and FaDu cells (derived from human hypopharynx cancer) were obtained from American Type Culture Collection (ATCC). […] After cells were seeded at 300-600 cells/well onto black μClear-plate 384 well (Greiner bio-one Cat. No. 781091), a test substance was added such that the final concentration of DMSO is 0.1%, and cultured for 4 days. […] A test shown in Test example 1 was carried out for compounds obtained in the Examples.
# [2] = test system: HCT-116 cells; assay: Inhibition assay of cancer cell sphere-forming ability (Test Example 2), HCT-116; settings: Homo sapiens, HCT-116, 96 h, HCT-116 cells, Ultra-Low Attachment plate, serum-free DMEM/F12 with B27, EGF, bFGF, insulin, 4 days, Cell Titer-Glo; read-out: IC50 (μM) HCT; concentration for 50% inhibition of cell proliferation (Sphere IC50 value)
# Protocol: (§2) HCT-116 cells (derived from human colon adenocarcinoma), HT-29 cells (derived from human colon cancer), FaDu cells (derived from human hypopharynx cancer) were obtained from American Type Culture Collection (ATCC). […] HCT-116 cells, HT-29 cells, and FaDu cells were seeded onto 384 Well Black Clear Bottom Ultra-Low Attachment Microplate (Corning Cat. […] A test substance was added so that the final concentration of DMSO is 0.1%, and then cultured for 4 days. […] A test shown in Test example 2 was carried out for compounds obtained in the Examples.
# [3] = test system: HT-29 cells; assay: Inhibition assay of cancer cell sphere-forming ability (Test Example 2), HT-29; settings: Homo sapiens, HT-29, 96 h, HT-29 cells, Ultra-Low Attachment plate, serum-free DMEM/F12 with B27, EGF, bFGF, insulin, 4 days, Cell Titer-Glo; read-out: IC50 (μM) HT; concentration for 50% inhibition of cell proliferation (Sphere IC50 value)
# Protocol: as §2
# [4] = test system: cancer cells; assay: Inhibition test of cancer cell sphere-forming ability, overall statement on Table 2; settings: summary of Table 2
# Protocol: HCT-116 cells (derived from human colon adenocarcinoma), HT-29 cells (derived from human colon cancer), FaDu cells (derived from human hypopharynx cancer) were obtained from American Type Culture Collection (ATCC). HCT-116 cells and HT-29 cells were cultured using McCoy's 5a medium containing 10% fetal bovine serum (FBS) and 1% penicillin/streptomycin, and FaDu cells were cultured using MEM medium containing 10% FBS, 1% non-essential amino acid, 1% sodium pyruvate, and 1% penicillin/streptomycin, respectively, at 37° C. in the presence of 5% CO2. HCT-116 cells, HT-29 cells, and FaDu cells were seeded onto 384 Well Black Clear Bottom Ultra-Low Attachment Microplate (Corning Cat. No. 3827) using DMEM/F12 medium containing 2% B27 supplement (GIBCO), 20 ng/mL epidermal growth factor (EGF) (peprotech), 10 ng/mL basic fibroblast growth factor (bFGF) (peprotech), 5 μg/mL insulin (Sigma), and 1% penicillin/streptomycin to be 350-800 cells/well. A test substance was added so that the final concentration of DMSO is 0.1%, and then cultured for 4 days. The number of living cells was then counted using Cell Titer-Glo (registered trademark) Luminescent Cell Viability Assay (Promega) to calculate the concentration for 50% inhibition of cell proliferation of respective test substances (Sphere IC50 value; μM).
# [5] = test system: HCT-116 cells; assay: Proliferation inhibition assay of cancer cells (Test Example 1), HCT-116; settings: Homo sapiens, HCT-116, 96 h, HCT-116 cells, cultured for 4 days, Cell Titer-Glo; read-out: IC50 (μM) HCT; concentration for 50% inhibition of cell proliferation (Bulk IC50 value)
# Protocol: as §1
# [6] = test system: HT-29 cells; assay: Proliferation inhibition assay of cancer cells (Test Example 1), HT-29; settings: Homo sapiens, HT-29, 96 h, HT-29 cells, cultured for 4 days, Cell Titer-Glo; read-out: IC50 (μM) HT; concentration for 50% inhibition of cell proliferation (Bulk IC50 value)
# Protocol: as §1
# [7] = test system: FaDu cells; assay: Inhibition assay of cancer cell sphere-forming ability (Test Example 2), FaDu; settings: Homo sapiens, FaDu, 96 h, FaDu cells, Ultra-Low Attachment plate, serum-free DMEM/F12 with B27, EGF, bFGF, insulin, 4 days, Cell Titer-Glo; read-out: IC50 (μM) FaDu; concentration for 50% inhibition of cell proliferation (Sphere IC50 value)
# Protocol: as §2
# [8] = test system: cancer cells; assay: Proliferation inhibition test of cancer cells, overall statement on Table 1; settings: summary of Table 1
# Protocol: HCT-116 cells (derived from human colon adenocarcinoma), HT-29 cells (derived from human colon cancer), and FaDu cells (derived from human hypopharynx cancer) were obtained from American Type Culture Collection (ATCC). HCT-116 cells and HT-29 cells were cultured using McCoy's 5a medium containing 10% fetal bovine serum (FBS) and 1% penicillin/streptomycin, and FaDu cells were cultured using MEM medium containing 10% FBS, 1% non-essential amino acid, 1% sodium pyruvate, and 1% penicillin/streptomycin, respectively, at 37° C. in the presence of 5% CO2. After cells were seeded at 300-600 cells/well onto black μClear-plate 384 well (Greiner bio-one Cat. No. 781091), a test substance was added such that the final concentration of DMSO is 0.1%, and cultured for 4 days. The number of living cells was then counted using Cell Titer-Glo (Registered trademark) Luminescent Cell Viability Assay (Promega) to calculate a concentration for 50% inhibition of cell proliferation of respective test substances (Bulk IC50 value; μM).
Structure (SMILES),IC50 [1] [µM],IC50 [2] [µM],IC50 [3] [µM],IC50 [5] [µM],IC50 [6] [µM],IC50 [7] [µM],effect to inhibit cancer cell sphere-forming ability (in words) [4],effect on the inhibition of the proliferation of cancer cells (in words) [8]
"CC(=O)N1CCN(Cc2cc3c(s2)C(=O)c2ccncc2C3=O)CC1 [Example 27, 2-[(4-acetylpiperazin-1-yl)methyl]thieno[2,3-g]isoquinoline-4,9-dione]",0.03,0.47,0.06,0.5,0.4,< 0.01,particularly strong effect,
"O=C1c2cnccc2C(=O)c2sc(C(=O)N3CCOCC3)cc21 [Example 20, 2-(morpholin-4-ylcarbonyl)thieno[2,3-g]isoquinoline-4,9-dione]",< 0.01,0.06,0.06,0.05,0.09,< 0.01,particularly strong effect,particularly strong effect
"CCN(CCOC)Cc1cc2c(s1)C(=O)c1ccncc1C2=O [Example 24, 2-{[ethyl(2-methoxyethyl)amino]methyl}thieno[2,3-g]isoquinoline-4,9-dione]",0.03,0.43,0.18,0.34,0.65,< 0.01,particularly strong effect,
"CC(F)c1cc2c(s1)C(=O)c1ccncc1C2=O (centres unmarked) [Example 30, 2-(1-fluoroethyl)thieno[2,3-g]isoquinoline-4,9-dione]",< 0.01,< 0.01,< 0.01,< 0.01,0.05,< 0.01,particularly strong effect,particularly strong effect
"O=C1c2cnccc2C(=O)c2sc(C(O)C3CC3)cc21 (centres unmarked) [Example 16, 2-[cyclopropyl(hydroxy)methyl]thieno[2,3-g]isoquinoline-4,9-dione]",< 0.01,0.22,0.15,0.06,0.58,< 0.01,particularly strong effect,particularly strong effect
"CC(=O)c1cc2c(s1)C(=O)c1cccnc1C2=O [Example 1, 2-acetylthieno[2,3-g]quinoline-4,9-dione]",0.01,0.02,0.07,0.01,0.57,0.02,,particularly strong effect
"CC(=O)c1cc2c(s1)C(=O)c1ccncc1C2=O [Example 12, 2-acetylthieno[2,3-g]isoquinoline-4,9-dione]",< 0.01,0.04,0.03,0.05,0.18,< 0.01,particularly strong effect,particularly strong effect
"CC(C)(O)c1cc2c(s1)C(=O)c1ccncc1C2=O [Example 15, 2-(2-hydroxypropan-2-yl)thieno[2,3-g]isoquinoline-4,9-dione]",0.04,0.4,0.46,0.34,0.61,< 0.01,particularly strong effect,
"O=C1c2cnccc2C(=O)c2sc(CNCC(F)F)cc21 [Example 26, 2-{[(2,2-difluoroethyl)amino]methyl}thieno[2,3-g]isoquinoline-4,9-dione]",0.02,0.17,0.07,0.09,0.45,< 0.01,particularly strong effect,
"CC(O)c1cc2c(s1)C(=O)c1ccncc1C2=O (centres unmarked) [Example 13, 2-(1-hydroxyethyl)thieno[2,3-g]isoquinoline-4,9-dione]",0.02,0.05,0.06,0.06,0.37,< 0.01,particularly strong effect,

# Now from value to molecule, other results behind:
IC50 [1] [µM],IC50 [2] [µM],IC50 [3] [µM],IC50 [5] [µM],IC50 [6] [µM],IC50 [7] [µM],Structure (SMILES),effect to inhibit cancer cell sphere-forming ability (in words) [4],effect on the inhibition of the proliferation of cancer cells (in words) [8]
< 0.01,0.02,0.07,< 0.01,0.09,< 0.01,"CC(=O)c1cc2c(s1)C(=O)c1cnccc1C2=O [Example 33, 2-acetylthieno[3,2-g]isoquinoline-4,9-dione]",particularly strong effect,particularly strong effect
0.04,0.05,0.04,0.06,0.57,< 0.01,"O=C1c2ccncc2C(=O)c2c1oc(C(F)F)c2C(=O)N1CCOCC1 [Example 62, 2-(difluoromethyl)-3-(morpholine-4-carbonyl)furo[2,3-g]isoquinoline-4,9-dione]",particularly strong effect,particularly strong effect
< 0.01,0.04,0.05,< 0.01,0.05,< 0.01,"O=C(NCC(F)F)c1cc2c(o1)C(=O)c1ccncc1C2=O [Example 46, N-(2,2-difluoroethyl)-4,9-dioxo-4,9-dihydrofuro[2,3-g]isoquinoline-2-carboxamide]",particularly strong effect,particularly strong effect
< 0.01,0.03,< 0.01,0.04,0.31,< 0.01,"CCc1noc(-c2cc3c(s2)C(=O)c2ccncc2C3=O)n1 [Example 31, 2-(3-ethyl-1,2,4-oxadiazol-5-yl)thieno[2,3-g]isoquinoline-4,9-dione]",particularly strong effect,particularly strong effect
0.06,0.04,0.04,0.05,0.58,0.01,"O=C1c2cc(C(=O)N3CCOCC3)oc2C(=O)c2sccc21 [Example 55, 2-(morpholin-4-ylcarbonyl)thieno[3,2-f][1]benzofuran-4,8-dione]",particularly strong effect,
